Results taken from article PMC13305993, “Bioassay-Guided Phytochemical Investigation of Vietnamese Vitex rotundifolia Leaves and the Liverwort Ptychanthus striatus as Sources of SARS-CoV-2 Main Protease Inhibitors” (Molecules, 2026).

Target: SARS-CoV-2 Mpro (Severe acute respiratory syndrome coronavirus 2, UniProt P0DTD1)
Experiment: biochemical
Conditions: isolated compounds at 100 µg/mL; triplicate, mean (Figure 3)

**Q.** For C=C(C)[C@@H]1CC[C@]2(C(=O)O)CC[C@]3(C)[C@H](CC[C@@H]4[C@@]5(C)CC[C@H](O)C(C)(C)[C@@H]5CC[C@]43C)[C@@H]12 [V10, betulinic acid], which inhibition at 100 µg/mL is on record?
**A.** 0%
